PubChem BioAssay AID1259407 (Chemical Carcinogenesis Research Information System (CCRIS), 2018)
Active and inactive are the calls of the source. No rule for the calls is given here.

Tested on: CCRIS mutagenicity, Ames/micronucleus/aberration tests
Assay: CCRIS mutagenicity studies
[1] = Test System: AMES SALMONELLA TYPHIMURIUM, Strain/Indicator: TA98, Metabolic Activation: NONE, Method: PREINCUBATION
[2] = Test System: AMES SALMONELLA TYPHIMURIUM, Strain/Indicator: TA100, Metabolic Activation: NONE, Method: PREINCUBATION
[3] = Test System: AMES SALMONELLA TYPHIMURIUM, Strain/Indicator: TA1535, Metabolic Activation: NONE, Method: PREINCUBATION
[4] = Test System: AMES SALMONELLA TYPHIMURIUM, Strain/Indicator: TA1537, Metabolic Activation: NONE, Method: PREINCUBATION
[5] = Test System: AMES SALMONELLA TYPHIMURIUM, Strain/Indicator: TA98, Metabolic Activation: NONE, Method: STANDARD PLATE
[6] = Test System: AMES SALMONELLA TYPHIMURIUM, Strain/Indicator: TA102, Metabolic Activation: NONE, Method: PREINCUBATION

Question: Which mutagenic call (Test System: AMES SALMONELLA TYPHIMURIUM, Strain/Indicator: TA98, Metabolic Activation: HAMSTER, LIVER, S-9, AROCLOR 1254 (10%), Method: PREINCUBATION) does the source give for CC1(C)CC(N=C=O)CC(C)(CN=C=O)C1 (stereo unspecified) here?
Answer: The mutagenic call was “inactive; negative”.

Question: And the mutagenic call [1]?
Answer: The mutagenic call was “inactive; negative”.

Question: What about the mutagenic call (Test System: AMES SALMONELLA TYPHIMURIUM, Strain/Indicator: TA98, Metabolic Activation: RAT, LIVER, S-9, AROCLOR 1254 (10%), Method: PREINCUBATION) of the same compound?
Answer: Its mutagenic call is “inactive; negative”.

Question: What about the mutagenic call (Test System: AMES SALMONELLA TYPHIMURIUM, Strain/Indicator: TA100, Metabolic Activation: HAMSTER, LIVER, S-9, AROCLOR 1254 (10%), Method: PREINCUBATION) of the same compound?
Answer: The mutagenic call was “inactive; negative”.

Question: And the mutagenic call [2]?
Answer: Its mutagenic call is “inactive; negative”.

Question: What about the mutagenic call (Test System: AMES SALMONELLA TYPHIMURIUM, Strain/Indicator: TA100, Metabolic Activation: RAT, LIVER, S-9, AROCLOR 1254 (10%), Method: PREINCUBATION) of the same compound?
Answer: Its mutagenic call is “inactive; negative”.

Question: What about the mutagenic call (Test System: AMES SALMONELLA TYPHIMURIUM, Strain/Indicator: TA1535, Metabolic Activation: HAMSTER, LIVER, S-9, AROCLOR 1254 (10%), Method: PREINCUBATION) of the same compound?
Answer: Its mutagenic call is “inactive; negative”.

Question: What about the mutagenic call [3] of the same compound?
Answer: The mutagenic call was “inactive; negative”.

Question: What about the mutagenic call (Test System: AMES SALMONELLA TYPHIMURIUM, Strain/Indicator: TA1535, Metabolic Activation: RAT, LIVER, S-9, AROCLOR 1254 (10%), Method: PREINCUBATION) of the same compound?
Answer: Its mutagenic call is “inactive; negative”.

Question: And the mutagenic call (Test System: AMES SALMONELLA TYPHIMURIUM, Strain/Indicator: TA1537, Metabolic Activation: HAMSTER, LIVER, S-9, AROCLOR 1254 (10%), Method: PREINCUBATION)?
Answer: Its mutagenic call is “inactive; negative”.

Question: And the mutagenic call [4]?
Answer: Its mutagenic call is “inactive; negative”.

Question: And the mutagenic call (Test System: AMES SALMONELLA TYPHIMURIUM, Strain/Indicator: TA1537, Metabolic Activation: RAT, LIVER, S-9, AROCLOR 1254 (10%), Method: PREINCUBATION)?
Answer: The mutagenic call was “inactive; negative”.

Question: CCC(C)c1ccc(/C=C/c2ccc([N+](=O)[O-])cc2)cc1 (stereo unspecified) was tested. Which mutagenic call [5] did it give?
Answer: Its mutagenic call is “active; positive”.

Question: What about the mutagenic call (Test System: AMES SALMONELLA TYPHIMURIUM, Strain/Indicator: TA98, Metabolic Activation: RAT, LIVER, S-9, AROCLOR, Method: STANDARD PLATE) of the same compound?
Answer: Its mutagenic call is “active; positive”.

Question: What about the mutagenic call (Test System: AMES SALMONELLA TYPHIMURIUM, Strain/Indicator: TA100, Metabolic Activation: NONE, Method: STANDARD PLATE) of the same compound?
Answer: Its mutagenic call is “inactive; negative”.

Question: What about the mutagenic call (Test System: AMES SALMONELLA TYPHIMURIUM, Strain/Indicator: TA100, Metabolic Activation: RAT, LIVER, S-9, AROCLOR, Method: STANDARD PLATE) of the same compound?
Answer: Its mutagenic call is “active; positive”.

Question: With O=[N+]([O-])c1ccc2nc3cc([N+](=O)[O-])ccc3nc2c1 as the compound, how does the mutagenic call (Test System: AMES SALMONELLA TYPHIMURIUM, Strain/Indicator: TA98(NR), Metabolic Activation: NONE, Method: PREINCUBATION) read?
Answer: Its mutagenic call is “active; positive”.

Question: And the mutagenic call [1]?
Answer: The mutagenic call was “active; positive”.

Question: How did the mutagenic call [5] turn out when C#Cc1ccc2c3c(cccc13)-c1ccccc1-2 was run?
Answer: The mutagenic call was “active; positive”.

Question: And the mutagenic call (Test System: AMES SALMONELLA TYPHIMURIUM, Strain/Indicator: TA98, Metabolic Activation: RAT, LIVER, S-9, AROCLOR 1254 (2%), Method: STANDARD PLATE)?
Answer: Its mutagenic call is “active; positive”.

Question: For CCN=C=S, which mutagenic call (Test System: AMES SALMONELLA TYPHIMURIUM, Strain/Indicator: TA97, Metabolic Activation: NONE, Method: PREINCUBATION) is on record?
Answer: Its mutagenic call is “inactive; negative”.

Question: What about the mutagenic call (Test System: AMES SALMONELLA TYPHIMURIUM, Strain/Indicator: TA97, Metabolic Activation: RAT, LIVER, S-9, AROCLOR 1254, Method: PREINCUBATION) of the same compound?
Answer: The mutagenic call was “inactive; negative”.

Question: What about the mutagenic call [6] of the same compound?
Answer: The mutagenic call was “inactive; negative”.

Question: What about the mutagenic call (Test System: AMES SALMONELLA TYPHIMURIUM, Strain/Indicator: TA102, Metabolic Activation: RAT, LIVER, S-9, AROCLOR 1254, Method: PREINCUBATION) of the same compound?
Answer: Its mutagenic call is “inactive; negative”.

Question: With O=C(Br)CBr as the compound, how does the mutagenic call (End Point: IN VITRO CHROMOSOMAL ABERRATIONS, Test System: CHL CELLS, Metabolic Activation: RAT, LIVER, S-9, SODIUM PHENOBARBITAL AND 5,6-BENZOFLAVONE) read?
Answer: Its mutagenic call is “inactive; negative; authors report equivocal results for structural changes at 0.02 mg/ml”.

Question: What about the mutagenic call [1] of the same compound?
Answer: Its mutagenic call is “inactive; negative”.

Question: What about the mutagenic call (Test System: AMES SALMONELLA TYPHIMURIUM, Strain/Indicator: TA98, Metabolic Activation: RAT, LIVER, S-9, PHENOBARBITAL AND BETA-NAPHTHOFLAVONE, Method: PREINCUBATION) of the same compound?
Answer: The mutagenic call was “inactive; negative”.

Question: And the mutagenic call [2]?
Answer: Its mutagenic call is “inactive; negative”.

Question: And the mutagenic call (Test System: AMES SALMONELLA TYPHIMURIUM, Strain/Indicator: TA100, Metabolic Activation: RAT, LIVER, S-9, PHENOBARBITAL AND BETA-NAPHTHOFLAVONE, Method: PREINCUBATION)?
Answer: The mutagenic call was “inactive; negative”.

Question: And the mutagenic call [6]?
Answer: Its mutagenic call is “inactive; negative”.

Question: What about the mutagenic call (Test System: AMES SALMONELLA TYPHIMURIUM, Strain/Indicator: TA102, Metabolic Activation: RAT, LIVER, S-9, PHENOBARBITAL AND BETA-NAPHTHOFLAVONE, Method: PREINCUBATION) of the same compound?
Answer: Its mutagenic call is “inactive; negative”.

Question: What about the mutagenic call (Test System: AMES SALMONELLA TYPHIMURIUM, Strain/Indicator: TA104, Metabolic Activation: NONE, Method: PREINCUBATION) of the same compound?
Answer: The mutagenic call was “active; positive”.

Question: And the mutagenic call (Test System: AMES SALMONELLA TYPHIMURIUM, Strain/Indicator: TA104, Metabolic Activation: RAT, LIVER, S-9, PHENOBARBITAL AND BETA-NAPHTHOFLAVONE, Method: PREINCUBATION)?
Answer: Its mutagenic call is “active; positive”.

Question: And the mutagenic call [3]?
Answer: The mutagenic call was “inactive; negative”.

Question: What about the mutagenic call (Test System: AMES SALMONELLA TYPHIMURIUM, Strain/Indicator: TA1535, Metabolic Activation: RAT, LIVER, S-9, PHENOBARBITAL AND BETA-NAPHTHOFLAVONE, Method: PREINCUBATION) of the same compound?
Answer: The mutagenic call was “inactive; negative”.

Question: What about the mutagenic call [4] of the same compound?
Answer: The mutagenic call was “inactive; negative”.

Question: And the mutagenic call (Test System: AMES SALMONELLA TYPHIMURIUM, Strain/Indicator: TA1537, Metabolic Activation: RAT, LIVER, S-9, PHENOBARBITAL AND BETA-NAPHTHOFLAVONE, Method: PREINCUBATION)?
Answer: Its mutagenic call is “inactive; negative”.

Question: And the mutagenic call (Test System: E. COLI, Strain/Indicator: WP2UVRA/PKM101, Metabolic Activation: RAT, LIVER, S-9, PHENOBARBITAL AND BETA-NAPHTHOFLAVONE, Method: PREINCUBATION)?
Answer: Its mutagenic call is “active; positive”.

Question: What about the mutagenic call (Test System: E. COLI, Strain/Indicator: WP2UVRA, Metabolic Activation: NONE, Method: PREINCUBATION) of the same compound?
Answer: The mutagenic call was “inactive; negative”.

Question: What about the mutagenic call (Test System: E. COLI, Strain/Indicator: WP2UVRA, Metabolic Activation: RAT, LIVER, S-9, PHENOBARBITAL AND BETA-NAPHTHOFLAVONE, Method: PREINCUBATION) of the same compound?
Answer: Its mutagenic call is “inactive; negative”.

Question: O=c1oc2ccccc2c(O)c1C1CCCc2ccccc21 (stereo unspecified) was tested. Which mutagenic call (Test System: AMES SALMONELLA TYPHIMURIUM, Strain/Indicator: TA97, Metabolic Activation: NONE) did it give?
Answer: Its mutagenic call is “inactive; negative”.

Question: What about the mutagenic call (Test System: AMES SALMONELLA TYPHIMURIUM, Strain/Indicator: TA97, Metabolic Activation: S-9) of the same compound?
Answer: The mutagenic call was “inactive; negative”.

Question: What about the mutagenic call (Test System: AMES SALMONELLA TYPHIMURIUM, Strain/Indicator: TA98, Metabolic Activation: NONE) of the same compound?
Answer: The mutagenic call was “inactive; negative”.

Question: What about the mutagenic call (Test System: AMES SALMONELLA TYPHIMURIUM, Strain/Indicator: TA98, Metabolic Activation: S-9) of the same compound?
Answer: The mutagenic call was “inactive; negative”.

Question: What about the mutagenic call (Test System: AMES SALMONELLA TYPHIMURIUM, Strain/Indicator: TA100, Metabolic Activation: NONE) of the same compound?
Answer: Its mutagenic call is “inactive; negative”.

Question: And the mutagenic call (Test System: AMES SALMONELLA TYPHIMURIUM, Strain/Indicator: TA100, Metabolic Activation: S-9)?
Answer: Its mutagenic call is “inactive; negative”.

Question: What about the mutagenic call (Test System: AMES SALMONELLA TYPHIMURIUM, Strain/Indicator: TA102, Metabolic Activation: NONE) of the same compound?
Answer: The mutagenic call was “inactive; negative”.

Question: What about the mutagenic call (Test System: AMES SALMONELLA TYPHIMURIUM, Strain/Indicator: TA102, Metabolic Activation: S-9) of the same compound?
Answer: Its mutagenic call is “inactive; negative”.

Question: How did the mutagenic call [2] turn out when Cc1ccc(NO)cc1C was run?
Answer: Its mutagenic call is “active; positive”.

Question: And the mutagenic call (Test System: AMES SALMONELLA TYPHIMURIUM, Strain/Indicator: TA100, Metabolic Activation: RAT, LIVER, S-9, PCB, Method: PREINCUBATION)?
Answer: The mutagenic call was “active; positive”.

Question: With N#CC(C#N)=Cc1ccc([N+](=O)[O-])o1 as the compound, how does the mutagenic call [1] read?
Answer: The mutagenic call was “active; positive”.
